Test results from ChEMBL document CHEMBL1126844, “Hydroxylated 2-(5'-salicyl)naphthalenes as protein-tyrosine kinase inhibitors” (J Med Chem, 1993).

biological target: Tyrosine-protein kinase Lck (Homo sapiens, UniProt P06239); test: Inhibition of protein-tyrosine kinase p56lck
Sequence (P06239 whole entry): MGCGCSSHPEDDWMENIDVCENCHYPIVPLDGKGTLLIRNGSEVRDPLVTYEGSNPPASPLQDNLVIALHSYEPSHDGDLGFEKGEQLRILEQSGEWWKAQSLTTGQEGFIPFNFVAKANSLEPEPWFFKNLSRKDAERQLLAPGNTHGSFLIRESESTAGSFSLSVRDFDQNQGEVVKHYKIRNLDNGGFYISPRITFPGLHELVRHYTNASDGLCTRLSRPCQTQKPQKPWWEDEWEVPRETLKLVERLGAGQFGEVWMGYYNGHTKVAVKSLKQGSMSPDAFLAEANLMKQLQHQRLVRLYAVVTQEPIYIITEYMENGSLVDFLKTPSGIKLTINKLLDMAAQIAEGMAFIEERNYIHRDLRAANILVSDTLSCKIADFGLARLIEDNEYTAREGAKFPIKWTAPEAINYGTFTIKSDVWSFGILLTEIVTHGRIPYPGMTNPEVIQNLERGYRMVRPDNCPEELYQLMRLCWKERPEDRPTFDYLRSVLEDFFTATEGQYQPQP

Row | IC50 [µM] | Structure (SMILES)
1 | 65 | O=C(O)c1cc(-c2ccc3c(O)ccc(O)c3c2)ccc1O
2 | > 200 | O=C(O)c1cc(-c2ccc3ccccc3c2)ccc1O
3 | 150 | O=C(O)c1cc(-c2ccc3cc(O)c(O)cc3c2)ccc1O
4 | 42 | O=C(O)c1cc(-c2ccc3c(O)c(O)ccc3c2)ccc1O
